Values of other authors in patent publication EP0417819A1, “Psycho-pharmacological peptides” (AKZO N.V., priority 1989, dated 1991).
“Also recorded” adds a separate entry of the source.

System: extinction of the (active) avoidance behaviour of rats
Conditions: pole climbing test, state of the art, result in words

| Substance | extinction of the (active) avoidance behaviour |
| --- | --- |
| y-endorphin (YGGFMTSEKSQTPLVTL; Beta-endorphin; UniProt P01189 237-253, looked up, fragment) [β-endorphin (1-17)] | accelerate the extinction of the avoidance behaviour |
| β-endorphin (YGGFMTSEKSQTPLVTLFKNAIIKNAYKKGE; Beta-endorphin; UniProt P01189 237-267, looked up) [(59-89) fragments of β-LPH] | delays the extinction |
| a-endorphin | inhibit the extinction of the avoidance behaviour; also recorded: retarded |
| met-enkephalin (YGGFM; Met-enkephalin; UniProt P01189 237-241, looked up) [smaller peptide fragment derived from β-endorphin] | inhibit the extinction of the avoidance behaviour |
